# Results taken from US8273386B2, “Use of hop acids in fruit juices, fruit juice concentrates and other beverages to inhibit Alicyclobacillus bacteria” (MillerCoors LLC, priority 2004, dated 2012).
# Assays:
# Assay type in all cases: cell-based
# [1] = system: Alicyclobacillus acidoterrestris; assay: Minimal Inhibitory Concentration (MIC) assay, broth dilution in BAM, turbidity scored visually; details: for Growth in BAM at pH 4.0 at 45° C.: turbidity after 72 hours
# Procedure: The basic assay was performed by serially diluting the inhibitors using a two-fold dilution series in a nutrient broth. The dilutions provided inhibitor concentrations in the range of 0.025 ppm to 100 ppm. The nutrient broth used was the American Type Culture Collection Bacillus Agar Medium (BAM) (at pH 4.0 and at 45° C.) for the Alicyclobacillus acidoterrestris. All dilution series were inoculated with approximately 10,000 bacteria per 5 ml. broth tube of freshly cultured (using the same medium) cells per 5 ml. of test assay broth. In each assay, an inoculated sample of the broth without any inhibitor addition was used as a control. Growth was evaluated by visually assessing and scoring the development of turbidity in the broth after 72 hours. The results of the studies are summarized in Table 1 which gives the data from testing the effectiveness of the tetrahydroisohumulone, hexahydrocolupulone and colupulone in inhibiting Alicyclobacillus acidoterrestris. […] Hexahydrocolupulone inhibited the Alicyclobacillus acidoterrestris test strain at or above 50 ppm. Colupulone inhibited the Alicyclobacillus acidoterrestris test strain at or above 50 ppm.
# [2] = system: Alicyclobacillus acidocaldarius; assay: Minimal Inhibitory Concentration (MIC) assay, broth dilution in TSB, turbidity scored visually; details: for Growth in TSB at pH 7.0: turbidity after 48 hours; for Concentration inhibiting the Alicyclobacillus acidocaldarius test strain (MIC): TSB, pH 7.0, 48 hours
# Procedure: The basic assay was performed by serially diluting the inhibitors using a two-fold dilution series in a nutrient broth. The dilutions provided inhibitor concentrations in the range of 0.025 ppm to 100 ppm. The nutrient broth used was trypticase soy broth (TSB) (at pH 7.0) for the Alicyclobacillus acidocaldarius. All dilution series were inoculated with approximately 10,000 bacteria per 5 ml. of broth using freshly cultured (using the same medium) cells per 5 ml. of test assay broth. In each assay, an inoculated sample of the broth without any inhibitor addition was used as a control. Growth was evaluated by visually assessing and scoring the development of turbidity in the broth after 48 hours. The results of the studies are summarized in Table 2 which gives the data from testing the effectiveness of the tetrahydroisohumulone and hexahydrocolupulone in inhibiting Alicyclobacillus acidocaldarius. […] Hexahydrocolupulone inhibited the Alicyclobacillus acidocaldarius test strain at or above 0.05 ppm.
# Alicyclobacillus = assay: Inhibition of Alicyclobacillus in a solid or liquid medium (general statement)
Structure (SMILES),Growth in BAM at pH 4.0 at 45° C. ([1]; 0.025 ppm),Growth in BAM at pH 4.0 at 45° C. ([1]; 0.05 ppm),Growth in BAM at pH 4.0 at 45° C. ([1]; 0.1 ppm),Growth in BAM at pH 4.0 at 45° C. ([1]; 0.2 ppm),Growth in BAM at pH 4.0 at 45° C. ([1]; 0.4 ppm),Growth in BAM at pH 4.0 at 45° C. ([1]; 0.8 ppm),Growth in BAM at pH 4.0 at 45° C. ([1]; 1.6 ppm),Growth in BAM at pH 4.0 at 45° C. ([1]; 3.125 ppm),Growth in BAM at pH 4.0 at 45° C. ([1]; 6.25 ppm),Growth in BAM at pH 4.0 at 45° C. ([1]; 12.5 ppm),Growth in BAM at pH 4.0 at 45° C. ([1]; 25 ppm),Growth in BAM at pH 4.0 at 45° C. ([1]; 50 pm),Growth in BAM at pH 4.0 at 45° C. ([1]; 100 ppm),Growth in TSB at pH 7.0 ([2]; 0.025 ppm),Growth in TSB at pH 7.0 ([2]; 0.05 ppm),Growth in TSB at pH 7.0 ([2]; 0.1 ppm),Growth in TSB at pH 7.0 ([2]; 0.2 ppm),Growth in TSB at pH 7.0 ([2]; 0.4 ppm),Growth in TSB at pH 7.0 ([2]; 0.8 ppm),Growth in TSB at pH 7.0 ([2]; 1.6 ppm),also measured
"CC(C)CCC(=O)C1(O)C(O)=C(C(=O)CC(C)C)C(=O)C1CCC(C)C (stereo not shown) [Tetrahydroisohumulone, tetrahydroisohumulone]",++++ growth,++++ growth,++++ growth,++++ growth,++++ growth,++++ growth,++++ growth,++++ growth,++++ growth,++++ growth,No growth,No growth,No growth,++++ growth,++++ growth,++++ growth,++++ growth,++++ growth,++++ growth,++++ growth,"Concentration inhibiting the Alicyclobacillus acidoterrestris test strain (MIC) ([1]; BAM, pH 4.0, 45° C., 72 hours): ≥ 25 ppm; Growth in TSB at pH 7.0 ([2]; 3.125 ppm): No growth; Growth in TSB at pH 7.0 ([2]; 6.25 ppm): No growth; Growth in TSB at pH 7.0 ([2]; 12.5 ppm): No growth; Growth in TSB at pH 7.0 ([2]; 25 ppm): No growth; Growth in TSB at pH 7.0 ([2]; 50 ppm): No growth; Growth in TSB at pH 7.0 ([2]; 100 ppm): No growth; Concentration inhibiting the Alicyclobacillus acidocaldarius test strain (MIC) [2]: ≥ 3.125 ppm; Concentration effective in inhibiting Alicyclobacillus (Alicyclobacillus): ≥ 3 ppm"
"CC(C)CCC1=C(O)C(C(=O)C(C)C)=C(O)C(CCC(C)C)(CCC(C)C)C1=O [Hexahydrocolupulone, hexahydrocolupulone]",++++ growth,++++ growth,++++ growth,++++ growth,++++ growth,++++ growth,++++ growth,++++ growth,++++ growth,++++ growth,++++ growth,No growth,No growth,++ growth,No growth,No growth,No growth,No growth,No growth,No growth,Growth in TSB at pH 7.0 ([2]; 3.125 ppm): No growth; Growth in TSB at pH 7.0 ([2]; 6.25 ppm): No growth; Growth in TSB at pH 7.0 ([2]; 12.5 ppm): No growth; Growth in TSB at pH 7.0 ([2]; 25 ppm): No growth; Growth in TSB at pH 7.0 ([2]; 50 ppm): No growth; Growth in TSB at pH 7.0 ([2]; 100 ppm): No growth; Concentration inhibiting the Alicyclobacillus acidocaldarius test strain (MIC) [2]: ≥ 0.05 ppm; Concentration effective in inhibiting Alicyclobacillus (Alicyclobacillus): ≥ 0.05 ppm
"CC(C)=CCC1=C(O)C(C(=O)C(C)C)=C(O)C(CC=C(C)C)(CC=C(C)C)C1=O [Colupulone, colupulone]",++++ growth,++++ growth,++++ growth,++++ growth,++++ growth,++++ growth,++++ growth,++++ growth,++++ growth,++++ growth,++++ growth,No growth,No growth,–,–,–,–,–,–,–,–
